# Patent publication US9091678B2, “Method for identifying compounds useful for treating and/or preventing disease-associated bone loss” (priority 2008, dated 2015)
# System: RAW264.7 cells
# Assay: Toxicity test on osteoclast precursors
# Assay type: cell-based
# Details: RAW264.7 cells grown 72 hours with 10 to 100 μM of compound, vs 0.5% DMSO control
# Description: The selected compounds were then tested for their toxicity on osteoclast precursors. […] RAW264.7 cells used as osteoclasts […] were allowed to grow for 72 hours with 10 to 100 μM of compound. The growth of the cells was compared to control cells which were grown with 0.5% DMSO.
row,Structure (SMILES),Concentration μM (optimal concentration which does not affect the growth of the cells)
1,"O=Cc1cn(Cc2ccc(Cl)c(Cl)c2)c2ccccc12 [Compound 35, 1-(3,4-dichlorobenzyl)-1H-indole-3-carbaldehyde]",50 µM
2,"O=C1NC(=O)N(c2ccccc2Cl)C(=O)C1=Cc1ccccc1 [Compound 48, 5-benzylidene-1-(2-chlorophenyl)-2,4,6(1H,3H,5H)-pyrimidinetrione]",100 µM

# System: RAW264.7 cells differentiated in osteoclasts
# Assay: Toxicity test on differentiated osteoclasts (TRAP staining, morphology)
# Assay type: cell-based
# Parameters: key: compounds which induce the death of all the osteoclasts after 72 hours (−); compounds which induce morphological anomalies and/or death of part of the osteoclasts (+/−); +: Compounds which do not induce visible modifications of the osteoclasts
# Details: at the concentration given in Table 2, vs 0.5% DMSO control
# Description: The compounds were tested for their toxicity on differentiated osteoclasts at the concentration determined above. RAW264.7 cells differentiated in osteoclasts were allowed to grow for 72 hours in presence of the tested compounds. […] This osteoclasts specific labeling permits to visualize the cell morphology. The cell morphology was then compared to control cells which were allowed to grow in presence of 0.5% DMSO.
row,Structure (SMILES),Survival at 72 hours
1,"CCOc1ccc(NC(=O)CSc2nnc(-c3ccc(OC)cc3)o2)cc1 [Compound 3, N-(4-ethoxyphenyl)-2-{[5-(4-methoxyphenyl)-1,3,4-oxadiazol-2-yl]thio}acetamide]",+/−
2,"O=C(O)CCC(=O)N1N=C(c2ccc([N+](=O)[O-])cc2)CC1c1ccc(Br)cc1 (stereo not drawn) [Compound 4, 4-[5-(4-bromophenyl)-3-(4-nitrophenyl)-4,5-dihydro-1H-pyrazol-1-yl]-4-oxobutanoic acid]",−
3,"Cc1ccc(N(C(=O)C(Cl)(Cl)Cl)C2C=CS(=O)(=O)C2)cc1 (stereo not drawn) [Compound 5, 2,2,2-trichloro-N-(1,1-dioxido-2,3-dihydro-3-thienyl)-N-(4-methylphenyl)acetamide]",−
4,"Cc1ccc(/C=C/C(=O)Nc2ccccc2Br)o1 [Compound 6, N-(2-bromophenyl)-3-(5-methyl-2-furyl)acrylamide]",+
5,"O=C(COc1cccc2ccccc12)Nc1ccc2c(c1)OCCO2 [Compound 10, N-(2,3-dihydro-1,4-benzodioxin-6-yl)-2-(1-naphthyloxy)acetamide]",+
6,"C=C1c2ccc(C)cc2NC(=O)N1c1cccc(Cl)c1 [Compound 11, 3-(3-chlorophenyl)-7-methyl-4-methylene-3,4-dihydro-2(1H)-quinazolinone]",−
7,"O=C(COc1ccccc1Cl)Nc1cc(C(F)(F)F)ccc1Cl [Compound 12, 2-(2-chlorophenoxy)-N-[2-chloro-5-(trifluoromethyl)phenyl]acetamide]",+
8,"CCC(=O)Nc1ccc(N2CCN(C(C)=O)CC2)cc1 [Compound 13, N-[4-(4-acetyl-1-piperazinyl)phenyl]propanamide]",+
9,"Cc1cc(=O)n2ccc(CN(C)C)c(O)c2n1 [Compound 14, 8-[(dimethylamino)methyl]-9-hydroxy-2-methyl-4H-pyrido[1,2-a]pyrimidin-4-one]",+
10,"O=C1/C(=C\c2ccc([N+](=O)[O-])cc2)SC(=S)N1c1cccc(C(F)(F)F)c1 [Compound 16, 5-(4-nitrobenzylidene)-2-thioxo-3-[3-(trifluoromethyl)phenyl]-1,3-thiazolidin-4-one]",+/−
11,"CC1=NN(c2cccc(C(=O)O)c2)C(=O)/C1=C\c1cccc(Br)c1 [Compound 18, 3-[4-(3-bromobenzylidene)-3-methyl-5-oxo-4,5-dihydro-1H-pyrazol-1-yl]benzoic acid]",−
12,"O=C(Nc1cccc2nsnc12)c1ccc(Br)o1 [Compound 20, N-2,1,3-benzothiadiazol-4-yl-5-bromo-2-furamide]",−
13,"O=C(Nc1cc(Cl)cc(Cl)c1)S(=O)(=O)c1ccccc1 [Compound 21, (3,5-dichlorophenyl)[(phenylsulfonyl)carbonyl]amine]",+/−
14,"CC(=O)N1CCN(c2ccc([N+](=O)[O-])cc2Cl)CC1C (stereo not drawn) [Compound 22, 1-acetyl-4-(2-chloro-4-nitrophenyl)-2-methylpiperazine]",−
15,"COc1cccc(/C=C2/C=C(c3ccc(C)cc3)OC2=O)c1 [Compound 23, 3-(3-methoxybenzylidene)-5-(4-methylphenyl)-2(3H)-furanone]",−
16,"O=C(O)/C=C/c1ccc(-c2ccc(Cl)c(Cl)c2)o1 [Compound 24, 3-[5-(3,4-dichlorophenyl)-2-furyl]acrylic acid]",−
17,"CCOC(=O)C1=C(C)N=c2sc(=Cc3cc(Cl)c(OCC(=O)O)c(OC)c3)c(=O)n2C1c1ccccc1Cl (stereo not drawn) [Compound 25, (2-chloro-4-{[5-(2-chlorophenyl)-6-(ethoxycarbonyl)-7-methyl-3-oxo-5H-[1,3]thiazolo[3,2-a]pyrimidin-2(3H)-ylidene]methyl}-6-methoxyphenoxy)acetic acid]",−
18,"O=S(=O)(c1cccc2nsnc12)N1CCN(C(c2ccccc2)c2ccccc2)CC1 [Compound 26, 4-{[4-(diphenylmethyl)-1-piperazinyl]sulfonyl}-2,1,3-benzothiadiazole]",−
19,"CCOc1ccc(C(=O)Nc2ccc(N3CCN(C(C)=O)CC3)cc2)cc1[N+](=O)[O-] [Compound 27, N-[4-(4-acetyl-1-piperazinyl)phenyl]-4-ethoxy-3-nitrobenzamide]",+

row,Structure (SMILES),Survival at 72 hours
1,"CC(C)(C)c1cc(C2Nc3cccc4cccc(c34)N2)cc(C(C)(C)C)c1O [Compound 30, 2,6-di-tert-butyl-4-(2,3-dihydro-1H-perimidin-2-yl)phenol]",−
2,"O=C1c2ccccc2NC(c2c(Cl)cccc2Cl)N1Cc1ccccc1 (stereo not drawn) [Compound 33, 3-benzyl-2-(2,6-dichlorophenyl)-2,3-dihydro-4(1H)-quinazolinone]",−
3,"Oc1ccc(-c2nc(-c3ccccc3)c(-c3cccs3)[nH]2)cc1O [Compound 34, 4-[4-phenyl-5-(2-thienyl)-1H-imidazol-2-yl]-1,2-benzenediol]",−
4,"O=Cc1cn(Cc2ccc(Cl)c(Cl)c2)c2ccccc12 [Compound 35, 1-(3,4-dichlorobenzyl)-1H-indole-3-carbaldehyde]",−
5,"COc1ccc(NC(=O)c2ccc(N(C)S(=O)(=O)c3ccccc3)cc2)cc1OC [Compound 37, N-(3,4-dimethoxyphenyl)-4-[methyl(phenylsulfonyl)amino]benzamide]",−
6,"O=C(/C=C/c1ccc(F)cc1)Nc1ccccc1Cl [Compound 40, N-(2-chlorophenyl)-3-(4-fluorophenyl)acrylamide]",+
7,"Oc1ccccc1C(=S)N1N=C(c2ccccc2)CC1(O)C(F)(F)F (stereo not drawn) [Compound 42, 1-[(2-hydroxyphenyl)carbonothioyl]-3-phenyl-5-(trifluoromethyl)-4,5-dihydro-1H-pyrazol-5-ol]",−
8,"COc1cc([N+](=O)[O-])ccc1N=S(C)C [Compound 43, 1-[(dimethyl-lambda~4~-sulfanylidene)amino]-2-methoxy-4-nitrobenzene]",+
9,"COCCOC(=O)c1ccc(NC(=O)c2ccc(C(C)(C)C)cc2)cc1 [Compound 44, 2-methoxyethyl 4-[(4-tert-butylbenzoyl)amino]benzoate]",−
10,"COc1ccccc1NC(=O)/C(=C\c1cccs1)NC(=O)c1ccc(C(C)(C)C)cc1 [Compound 46, 4-tert-butyl-N-[1-{[(2-methoxyphenyl)amino]carbonyl}-2-(2-thienyl)vinyl]benzamide]",+
11,"Cc1ccc(/C=C/C(=O)Nc2cccc(Cl)c2Cl)o1 [Compound 47, N-(2,3-dichlorophenyl)-3-(5-methyl-2-furyl)acrylamide]",−
12,"O=C1NC(=O)N(c2ccccc2Cl)C(=O)C1=Cc1ccccc1 [Compound 48, 5-benzylidene-1-(2-chlorophenyl)-2,4,6(1H,3H,5H)-pyrimidinetrione]",+
13,"O=C(Nc1ccccc1)Nc1nnc(C23CC4CC(CC(C4)C2)C3)s1 [Compound 49, N-[5-(1-adamantyl)-1,3,4-thiadiazol-2-yl]-N′-phenylurea]",+/−
14,"CCc1nc(-c2ccccc2)nc(C)c1C [Compound 50, 4-ethyl-5,6-dimethyl-2-phenylpyrimidine]",+
15,"COc1ccc(NC(=O)c2ccccc2Cl)cc1Cl [Compound 51, 2-chloro-N-(3-chloro-4-methoxyphenyl)benzamide]",+
16,"Cc1ccc(OCc2nnc(NC(=O)Nc3ccc(Cl)c(Cl)c3)s2)cc1 [Compound 53, N-(3,4-dichlorophenyl)-N′-{5-[(4-methylphenoxy)methyl]-1,3,4-thiadiazol-2-yl}urea]",+/−
17,"O=C(/C=C/c1cccc(C(F)(F)F)c1)Nc1ccc(F)cc1 [Compound 54, N-(4-fluorophenyl)-3-[3-(trifluoromethyl)phenyl]acrylamide]",−
18,"O=C1c2ccccc2NC(c2ccccc2O)N1Cc1ccco1 (stereo not drawn) [Compound 55, 3-(2-furylmethyl)-2-(2-hydroxyphenyl)-2,3-dihydro-4(1H)-quinazolinone]",−
